Results on three substances are retold here after patent US20120189627A1, “Semi-Synthetic GLP-1 Peptide-FC Fusion Constructs, Methods and Uses” (priority 2007, published 2012).

Ends that are not written are not given here.

For assay [1] the following is noted: type 2 diabetic patients, cited from earlier work.
The conditions of assay [2]: administered subcutaneously; cited from earlier work.
The target of the next assay is T1, GLP-1 Receptor (Rattus norvegicus, UniProt P32301).
T1 construct: endogenous in cells; host or cells: INS-1E cells
T1 sequence (P32301 22-463): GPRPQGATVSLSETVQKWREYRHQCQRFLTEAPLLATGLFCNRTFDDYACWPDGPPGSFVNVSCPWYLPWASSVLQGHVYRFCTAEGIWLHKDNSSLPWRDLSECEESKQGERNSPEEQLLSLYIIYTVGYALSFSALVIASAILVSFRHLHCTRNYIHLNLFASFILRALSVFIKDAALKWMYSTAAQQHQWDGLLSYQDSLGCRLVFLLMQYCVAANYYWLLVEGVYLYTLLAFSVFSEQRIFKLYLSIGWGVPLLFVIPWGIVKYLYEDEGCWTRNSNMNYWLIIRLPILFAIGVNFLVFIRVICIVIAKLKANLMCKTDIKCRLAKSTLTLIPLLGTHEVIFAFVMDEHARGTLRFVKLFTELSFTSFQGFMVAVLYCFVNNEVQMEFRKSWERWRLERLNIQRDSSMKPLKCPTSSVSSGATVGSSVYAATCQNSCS
Description: LANCE cAMP assay in INS-1E cells. The class given is cell-based. Conditions: FIG. 1. Here is the method: The peptide-conjugates were tested for activity using the cAMP assay which measures cAMP produced upon modulation of adenylyl cyclase activity by GPCRs. • cAMP Assay The LANCE™ cAMP assay (Hemmila I. 1999. LANCE™: Homogeneous Assay Platform for HTS. J Biomol Screen. 4(6), 303-308) is a homogeneous time-resolved fluorescence resonance energy transfer (TR-FRET) immunoassay. The assay is based on the competition between a europium-labeled cAMP tracer and sample cAMP for binding sites on cAMP-specific antibodies labeled with the dye Alexa Fluor® 647. The europium-labeled tracer complex is formed by the tight interaction between Biotin-cAMP and streptavidin labeled with Europium-W8044 chelate. When antibodies are bound to the Eu-SA/b-cAMP tracer, light pulse 340 nm excites the Eu-chelate molecules of the tracer. […] The fluorescence intensity measure at 665 nm will decrease in the presence of cAMP from the test samples and resulting signals will be inversely proportional to the cAMP concentration of a sample (LANCE cAMP manual). • Cells and Assay. […]
For the assay, INS-1E cells were plated at confluence in 96-well plates (Costar 3610) and allowed to recover for 4 days in normal growth media. […] The plates were incubated at room temperature for 1 hour and then fluorescence intensity was measured at 665 nm. Cyclic AMP concentrations were determined against a standard curve.
(In general: In TR-FRET formats the signal depends on donor and acceptor labels being close together.)

For the substance “GLP-1: Glucagon like peptide-1, peptide secreted from the L-cells of the intestine; given as six-week infusion (HAEGTFTSDVSSYLEGQAAKEFIAWLVKGRG-NH2; listed as Homo sapiens)”, the “fasting and 8-hour mean plasma glucose levels” value in assay [1] (six-week infusion) is reported as “lowered”. Moreover, the β-cell function result in assay [1] is “improvement”.

“GLP-1 (7-36) amide: GLP-1 (7-36) amide, GLP-1 peptide of the background section (HAEGTFTSDVSSYLEGQAAKEFIAWLVKGR-NH2; UniProt P01275 98-127, looked up)”: the time action result in assay [2] was “about 50 minutes”.

Consider “His-[D-Ala]-Glu-Gly-Thr-Phe-Thr-Ser-Asp-Val-Ser-Ser-Tyr-Leu-Glu-Gly-Gln-Ala-Ala-Lys-Glu-Phe-Ile-Ala-Trp-Leu-Val-Lys-Gly-Arg-Gly-(N-3-aminopropyl)-PEG3-NH—CO—CH2—NH—NH2 [Peptide 1]”, for which, at GLP-1 Receptor, the “bioactivity: ability to stimulate cAMP compared to wild-type GLP-1” value is “no loss in bioactivity”.
